Measurements reported in patent US20150056166A1, “FLAVONE DERIVATIVES AND THEIR USE” (Twincore GmbH, priority 2012, published 2015).
Read-outs that look alike come from different tables or passages of the source.

Experiments:
FF-Jc1 reporter virus = assay: HCV cell entry, FF-Jc1 reporter virus in Huh-7.5 cells (FIG. 9); assay type: cell-based; conditions: Hepatitis C virus, Huh7.5
Method: FIG. 9: Comparison of flavones 13, 14 and 15. Huh-7.5 cells were seeded in 12-well plates and infected for 4 h with FF-Jc1 reporter virus +/−inhibitor (ranging from 0-100 μM final concentration). 72 h after infection, the cells were lysed and the reporter activity measured. The mean values of 6 measurements are shown in the graph. Fluorine analogues of flavone 13, flavones 14 (BJ751/1) and 15 (BJ755-3 I), inhibit HCV cell entry with 8-10-fold increased effects compared to those of the flavone 13.

ED43 (GT4a) = assay: Luciferase infection assay, chimeric reporter virus ED43/4a/R2a in Huh7-Lunet/CD81 cells; assay type: cell-based, HCV; conditions: Hepatitis C virus, Huh-7, 72 h
[1] = test system: subgenomic JFH1 luciferase replicon; assay: HCV RNA translation and replication, subgenomic luciferase replicon in Huh7-Lunet/CD81 cells; assay type: cell-based; conditions: up to a dose of 10 μM, 72 h post transfection
Method: (A) Huh7-Lunet/CD81 cells were transfected with the subgenomic luciferase replicon depicted at the top. Drugs were added 4 h post transfection and the level of HCV RNA translation and RNA replication was quantified by luciferase assays 72 h post transfection. Mean values of three independent experiments each with quadruplicate measurements including the standard deviation are shown. (B) Cells were transfected with the Jc1 chimera depicted above and drugs were added 4 h later. HCV virus release in the presence or absence of given compounds was determined by quantification of intracellular and extracellular core protein levels using a core-specific ELISA. Mean values of three independent experiments with single measurements including the error range are given. (C) Huh7-Lunet/CD81 cells were inoculated with Luc-Jc1 reporter viruses prepared in the absence of drugs. […] Infectivity was determined 72 h later by luciferase assays and compared to DMSO-treated controls. […]
To characterize the antiviral effect of BJ486K, the impact of BJ486K on the steps of HCV RNA translation and replication was assessed. To this end, Huh7-Lunet/CD81 cells were transfected with a subgenomic JFH1 luciferase replicon and RNA replication was monitored 72 h later by luciferase assays. […]

JcR-2a virus particles = assay: Antiviral activity against early steps of HCV cell entry, synchronized JcR-2a infection (FIG. 3); assay type: cell-based; conditions: Hepatitis C virus
Method: FIG. 3: BJ486K inhibits cell entry post virus attachment. The design of the JcR-2a reporter virus construct is given at the top. Huh7-Lunet/CD81 cells were inoculated with concentrated JcR-2a particles at 4° C. for 60 minutes. Subsequently, unbound virus particles were washed away and cells were shifted to 37° C. to permit synchronized cell entry. According to the 8 experimental protocols depicted in the middle, various cell entry inhibitors including heparin (50 μg/ml), ITX5061 (10 μM), CD81-specific antibody JS-81 (2 μg/ml) and BJ486K (20 μM) were either present during inoculation (protocol 1) or were added at different time points after inoculation (protocols 2 to 8). In each case, inhibitor was present for 4 h (dashed line) and was then washed away. Efficiency of cell entry was determined 48 h post inoculation by determination of luciferase activity and is expressed relative to control infections conducted in the presence of solvent alone (DMSO). Mean values of three independent experiments each with quadruplicate measurements including the standard deviation are shown.
JcR-2a virus particles were incubated with Huh7-Lunet/CD81 cells seeded as described above for 1 h at 4° C. to synchronize cell entry. Various inhibitors including 50 μg/ml heparin (Sigma-Aldrich), CD81-specific antibody JS-81 (2 μg/ml; Becton Dickinson), ITX 5061 (10 μM) or BJ486K (20 μM), were added during virus inoculation (protocol 1) or at indicated time points after virus inoculation (protocol 2-8). After 4 h inhibitor treatment, medium was changed to fresh culture fluid without inhibitors and the cells were lysed 48 h after inoculation as described above. Efficiency of infection was determined by luciferase assay using a tube luminometer (Lumat LB9507, Berthold, Freiburg, Germany).
To resolve which step of HCV cell entry is inhibited by BJ486K, we assessed its antiviral activity when administered at different time points during the early phase of infection. To this end, Huh7-Lunet/CD81 cells were inoculated for one hour at 4° C. with a reporter virus prepared in the absence of drugs. […]

Question: What does the source list for COc1ccc(-c2cc(=O)c3c(O)c(O)c(OC)cc3o2)cc1 [BJ486K, 5,6-Dihydroxy-7-methoxy-2-(4-methoxy-phenyl)-chromen-4-one]?
Answer: EC50 (FF-Jc1 reporter virus): ~2000 nM; IC50 (ED43 (GT4a)): 740 nM; IC90 (ED43 (GT4a)): 1780 nM; luciferase activity (HCV RNA translation and replication) [1]: not changed; inhibition at 20 µM (JcR-2a virus particles; 20 min, read-out: inhibition of HCV infection): ~80%; inhibition at 20 µM (JcR-2a virus particles; read-out: inhibition of entry): > 90%
